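Briefly, cells in 96-well plates were exposed to five compound concentrations for 48 h, and endpoints were estimated by linear interpolation. TGI: concentration producing complete growth inhibition.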
Experiments:
Assay in all cases: NCI-60 cell line screen, 48 h
SK-MEL-2 melanoma = test system: SK-MEL-2 melanoma
SF-295 CNS = test system: SF-295 CNS
A549 NSCLC = test system: A549 NSCLC
UACC-62 melanoma = test system: UACC-62 melanoma
HCT-15 colon = test system: HCT-15 colon
OVCAR-3 ovarian = test system: OVCAR-3 ovarian
CAKI-1 renal = test system: CAKI-1 renal
HCT-116 colon = test system: HCT-116 colon
NCI-H226 lung = test system: NCI-H226 lung
CCRF-CEM leukemia = test system: CCRF-CEM leukemia
UO-31 renal = test system: UO-31 renal
RXF 393 renal = test system: RXF 393 renal
SF-268 CNS = test system: SF-268 CNS
SR leukemia = test system: SR leukemia
SNB-78 CNS = test system: SNB-78 CNS
NCI-H460 lung = test system: NCI-H460 lung
HT29 colon = test system: HT29 colon
LOX IMVI melanoma = test system: LOX IMVI melanoma
K-562 leukemia = test system: K-562 leukemia
EKVX NSCLC = test system: EKVX NSCLC

| Compound | TGI (SK-MEL-2 melanoma) [µM] | TGI (SF-295 CNS) [µM] | TGI (A549 NSCLC) [µM] | TGI (UACC-62 melanoma) [µM] | TGI (HCT-15 colon) [µM] | TGI (OVCAR-3 ovarian) [µM] | TGI (CAKI-1 renal) [µM] | TGI (HCT-116 colon) [µM] | TGI (NCI-H226 lung) [µM] | TGI (CCRF-CEM leukemia) [µM] | TGI (UO-31 renal) [µM] | TGI (RXF 393 renal) [µM] | TGI (SF-268 CNS) [µM] | TGI (SR leukemia) [µM] | TGI (SNB-78 CNS) [µM] | TGI (NCI-H460 lung) [µM] | TGI (HT29 colon) [µM] | TGI (LOX IMVI melanoma) [µM] | TGI (K-562 leukemia) [µM] | TGI (EKVX NSCLC) [µM] |
| --- | --- | --- | --- | --- | --- | --- | --- | --- | --- | --- | --- | --- | --- | --- | --- | --- | --- | --- | --- | --- |
| Cc1cn(C2CC(n3cc(Cn4ccc(=O)[nH]c4=O)nn3)C(CO)O2)c(=O)[nH]c1=O (centres undefined) | > 100 | > 100 | > 100 | > 100 | > 100 | > 100 | > 100 | > 100 | > 100 | > 100 | > 100 | > 100 | > 100 | – | – | – | – | – | – | – |
| C=C(/C=C/C=C(\C)CCC=C(C)C)[C@@H]1CC[C@]2([C@H](CCCO)/C(=C(/C)C=O)CC[C@]2(C)O)[C@@H]1O | 38.5 | 44 | 38.2 | – | 34.2 | – | 60.9 | – | 56.2 | 48.8 | 48 | 37.8 | 41.8 | 40.9 | 33.5 | 26.5 | 30.9 | 31.9 | 30.9 | 44.1 |
| O=C1c2ccccc2N(O)C1(c1ccccc1)C1CCCC=C1N1CCOCC1 (centres undefined) | – | > 100 | > 100 | > 100 | > 100 | > 100 | > 100 | > 100 | > 100 | > 100 | > 100 | > 100 | > 100 | > 100 | > 100 | > 100 | > 100 | > 100 | > 100 | > 100 |

— PubChem BioAssay (NCI)
